# Measured values published in patent US20210382058A1, “PATIENT SELECTION FOR TREATMENT OF MYC POSITIVE CANCERS WITH INDENOISOQUINOLINES” (Purdue Research Foundation, priority 2020, published 2021).
# Where two headings read alike, the source gives them in different places.
# How the values were obtained:
# [1] = system: MycG4 (MycPu22 DNA); assay: FRET-melting assay (thermal stabilization of MycG4); type: binding, human; settings: FIG. 4
# Experimental: To confirm the stabilizing effect of indenoisoquinolines on MycG4, the Tm values of MycG4 were measured in the presence of indenoisoquinoline compounds in 10 mM K^+ using dual-3′-FAM- and 5′-TAMRA-labeled MycPu22 DNA by FRET-melting experiments. MycPu22 DNA forms a single MycG4 structure and was used for NMR structure determination (FIG. 1B, right).^43 Therefore, MycPu22 provides the best molecular system for MycG4 and was used in all the subsequent experiments. […] (FIG. 2B). A clear positive correlation was observed between the indenoisoquinolines' ability to induce MycG4 formation and to increase its thermal stability (FIG. 2C).
# FRET-melting experiments. The stock solution containing 100 μM 3′-TAMRA (Ex. 555 nm/Em. 580 nm), 5′-FAM (Ex. 490 nm/Em. 520 nm) dual-labeled MycPu22 DNA sequence was first diluted to 2 μM using 7.5 mM KCl, 2.5 mM phosphate buffer, pH 7.0. […] With gradually increasing temperature, the MycPu22 DNA is unfolded from the G4 form to a single-stranded conformation where the FAM is far apart to the TAMRA, which results in a high FAM fluorescence. Melting curves for the determination of Tm were then obtained by recording FAM fluorescence with increasing temperatures from 25 to 95° C. at a rate of 0.9° C./min using a QuantStudio 6 Flex Real-Time PCR System. The Tm values were determined by the maximum of the first derivative plot of the melting curves. […]
# [2] = system: MYC protein expression in MCF-7 breast cancer cells; assay: Western blotting of MYC protein level in MCF-7 cells; type: cell-based, human; settings: Homo sapiens, MCF7; western blotting, MCF-7 cells, 0.5, 1, 2, and 4 μM, 24 hours; read-out: MYC Inhibition
# Experimental: MCF-7 cells were incubated with each compound at four concentrations (0.5, 1, 2, and 4 μM) for 24 hours, and the MYC protein levels were measured (FIG. 3A and FIGS. 12 A to 12 F).
# Cells were incubated at 37° C. with 5% CO2.
# The gels were cut into strips that contained the proteins of interest and transferred to nitrocellulose membrane (I323002, Invitrogen) using an iBlot 2 Dry Transfer Device (Invitrogen). Immunoblotting was carried out according to standard procedures using the ECL detection method. The membrane was hybridized with the following antibodies: monoclonal anti-MYC (1:1000 dilution; rabbit, Cell Signaling Technology), monoclonal anti-GAPDH (1:2000 dilution; rabbit, Cell Signaling Technology).
# [3] = system: NCI-60 cancer cell lines; assay: NCI-60 cancer cell line drug screen (GI50, MGM); type: cell-based, human; settings: Homo sapiens; for GI50: read-out: Antiproliferative Activities [GI50 (μM)]
# Experimental: Cancer cells were incubated with the test compounds at five concentrations ranging from 100 μM to 10 nM for 48 h. […] The approximate average of GI50 values across the entire panel of NCI-60 cancer cell lines for each compound was recorded as the MGM value.
SMILES,MycG4 binding and stabilizing activity (SAR) [1],minimal effective concentration [2] [µM],"GI50 ([3]; A549, Non-Small Cell Lung Cancer, A549/ATCC) [µM]","GI50 ([3]; CCRF-CEM, Leukemia, CCRF-CEM) [µM]","GI50 ([3]; COLO 205, Colon Cancer, COLO 205) [µM]","GI50 ([3]; EKVX, Non-Small Cell Lung Cancer, EKVX) [µM]","GI50 ([3]; HCC 2998, Colon Cancer, HCC-2998) [µM]","GI50 ([3]; HCT-116, Colon Cancer, HCT-116) [µM]","GI50 ([3]; HL-60, Leukemia, HL-60(TB)) [µM]","GI50 ([3]; HOP-92, Non-Small Cell Lung Cancer, HOP-92) [µM]","GI50 ([3]; Leukemia, SR) [µM]","GI50 ([3]; MOLT-4, Leukemia, MOLT-4) [µM]","GI50 ([3]; NCI-H23, Non-Small Cell Lung Cancer, NCI-H23) [µM]","GI50 ([3]; NCI-H226, Non-Small Cell Lung Cancer, NCI-H226) [µM]","GI50 ([3]; NCI-H322M, Non-Small Cell Lung Cancer, NCI-H322M) [µM]","GI50 ([3]; NCI-H460, Non-Small Cell Lung Cancer, NCI-H460) [µM]","GI50 ([3]; NCI-H522, Non-Small Cell Lung Cancer, NCI-H522) [µM]","GI50 ([3]; RPMI-8226, Leukemia, RPMI-8226) [µM]",mean GI50 across NCI-60 panel (MGM) ([3]; average of GI50 values across the entire panel of NCI-60 cancer cell lines) [nM]
O=C1c2ccccc2-c2c1c1ccccc1c(=O)n2CCCN1CCOCC1 [Compound 16],weakened,–,–,–,–,–,–,–,–,–,–,–,–,–,–,–,–,–,–
COc1cc2c3c(n(CCCN(C)C)c(=O)c2cc1OC)-c1cc2c(cc1C3=O)OCO2 [Compound 47],medium,2,0.89,< 0.01,0.94,1.46,0.13,0.22,1.6,1.3,< 0.01,< 0.01,0.19,1.4,1.56,0.28,0.31,0.3,390
